Assay results: the NIST ThermoML archive (doi:10.1016/j.fluid.2014.09.014)
Numbers after ± are expanded uncertainties.

Test: refractive index (other wavelength) (dimensionless); xn = mol fraction of the nth substance listed
Settings: 318.15 K, 101 kPa, Liquid, Standard Abbe refractometry

`CC(C)OC(C)C` [diisopropyl ether] + CO gave a refractive index (Wavelength=589.3 nm, x2 = 0.609) of 1.3468 ± 0.00034, a refractive index (Wavelength=589.3 nm, x2 = 0.6529) of 1.34529 ± 0.00034 and a refractive index (Wavelength=589.3 nm, x2 = 0.7504) of 1.34133 ± 0.00034. For the same compound, the refractive index (Wavelength=589.3 nm, x2 = 0.804) was 1.33536 ± 0.00037, the refractive index (Wavelength=589.3 nm, x2 = 0.807) was 1.33777 ± 0.00036 and the refractive index (Wavelength=589.3 nm, x2 = 0.8727) was 1.33406 ± 0.00033. It also gave a refractive index (Wavelength=589.3 nm, x2 = 0.9233) of 1.3261 ± 0.00032, a refractive index (Wavelength=589.3 nm, x2 = 0.9253) of 1.32772 ± 0.00032 and a refractive index (Wavelength=589.3 nm, x2 = 0.9527) of 1.32469 ± 0.00032. For the same compound, the refractive index (Wavelength=589.3 nm, x2 = 0.9773) was 1.32173 ± 0.00032, the refractive index (Wavelength=589.3 nm, x2 = 0.989) was 1.32048 ± 0.00032 and the refractive index (Wavelength=589.3 nm, x2 = 0.9964) was 1.31963 ± 0.00032. The refractive index (Wavelength=632.8 nm, x2 = 0) was 1.3529 ± 0.00043, the refractive index (Wavelength=632.8 nm, x2 = 0.0423) was 1.35285 ± 0.00043 and the refractive index (Wavelength=632.8 nm, x2 = 0.0424) was 1.35283 ± 0.00043. It also gave a refractive index (Wavelength=632.8 nm, x2 = 0.082) of 1.35285 ± 0.00042, a refractive index (Wavelength=632.8 nm, x2 = 0.0822) of 1.35295 ± 0.00042 and a refractive index (Wavelength=632.8 nm, x2 = 0.1171) of 1.3529 ± 0.00041. For the same compound, the refractive index (Wavelength=632.8 nm, x2 = 0.1271) was 1.35289 ± 0.00041, the refractive index (Wavelength=632.8 nm, x2 = 0.1827) was 1.35273 ± 0.0004 and the refractive index (Wavelength=632.8 nm, x2 = 0.2162) was 1.35262 ± 0.0004. The refractive index (Wavelength=632.8 nm, x2 = 0.251) was 1.35213 ± 0.00039, the refractive index (Wavelength=632.8 nm, x2 = 0.3298) was 1.35259 ± 0.00038 and the refractive index (Wavelength=632.8 nm, x2 = 0.3577) was 1.35147 ± 0.00038. The refractive index (Wavelength=632.8 nm, x2 = 0.4497) was 1.35038 ± 0.00038, the refractive index (Wavelength=632.8 nm, x2 = 0.4525) was 1.35098 ± 0.00038 and the refractive index (Wavelength=632.8 nm, x2 = 0.522) was 1.34869 ± 0.00035. The refractive index (Wavelength=632.8 nm, x2 = 0.5543) was 1.34779 ± 0.00035, the refractive index (Wavelength=632.8 nm, x2 = 0.609) was 1.34566 ± 0.00034 and the refractive index (Wavelength=632.8 nm, x2 = 0.6529) was 1.34413 ± 0.00034. The refractive index (Wavelength=632.8 nm, x2 = 0.7504) was 1.34018 ± 0.00034, the refractive index (Wavelength=632.8 nm, x2 = 0.804) was 1.33421 ± 0.00035 and the refractive index (Wavelength=632.8 nm, x2 = 0.807) was 1.33591 ± 0.00034. The refractive index (Wavelength=632.8 nm, x2 = 0.8727) was 1.33294 ± 0.00033, the refractive index (Wavelength=632.8 nm, x2 = 0.9233) was 1.32501 ± 0.00032 and the refractive index (Wavelength=632.8 nm, x2 = 0.9253) was 1.32665 ± 0.00032. For the same compound, the refractive index (Wavelength=632.8 nm, x2 = 0.9527) was 1.32362 ± 0.00032, the refractive index (Wavelength=632.8 nm, x2 = 0.9773) was 1.32066 ± 0.00032 and the refractive index (Wavelength=632.8 nm, x2 = 0.989) was 1.31944 ± 0.00032. The refractive index (Wavelength=632.8 nm, x2 = 0.9964) was 1.31859 ± 0.00032, the refractive index (Wavelength=644 nm, x2 = 0) was 1.35259 ± 0.00044 and the refractive index (Wavelength=644 nm, x2 = 0.0423) was 1.35256 ± 0.00043. It also gave a refractive index (Wavelength=644 nm, x2 = 0.0424) of 1.35253 ± 0.00043, a refractive index (Wavelength=644 nm, x2 = 0.082) of 1.35255 ± 0.00042 and a refractive index (Wavelength=644 nm, x2 = 0.0822) of 1.35267 ± 0.00042. The refractive index (Wavelength=644 nm, x2 = 0.1171) was 1.35259 ± 0.00041, the refractive index (Wavelength=644 nm, x2 = 0.1271) was 1.3526 ± 0.00041 and the refractive index (Wavelength=644 nm, x2 = 0.1827) was 1.35243 ± 0.0004. It also gave a refractive index (Wavelength=644 nm, x2 = 0.2162) of 1.35233 ± 0.0004, a refractive index (Wavelength=644 nm, x2 = 0.251) of 1.35185 ± 0.00039 and a refractive index (Wavelength=644 nm, x2 = 0.3298) of 1.35229 ± 0.00038. For the same compound, the refractive index (Wavelength=644 nm, x2 = 0.3577) was 1.3512 ± 0.00038, the refractive index (Wavelength=644 nm, x2 = 0.4497) was 1.3501 ± 0.00038 and the refractive index (Wavelength=644 nm, x2 = 0.4525) was 1.35071 ± 0.00038. The refractive index (Wavelength=644 nm, x2 = 0.522) was 1.34842 ± 0.00035, the refractive index (Wavelength=644 nm, x2 = 0.5543) was 1.34751 ± 0.00035 and the refractive index (Wavelength=644 nm, x2 = 0.609) was 1.34538 ± 0.00034. The refractive index (Wavelength=644 nm, x2 = 0.6529) was 1.34386 ± 0.00034, the refractive index (Wavelength=644 nm, x2 = 0.7504) was 1.3399 ± 0.00034 and the refractive index (Wavelength=644 nm, x2 = 0.804) was 1.33396 ± 0.00035. It also gave a refractive index (Wavelength=644 nm, x2 = 0.807) of 1.33566 ± 0.00034, a refractive index (Wavelength=644 nm, x2 = 0.8727) of 1.33269 ± 0.00033 and a refractive index (Wavelength=644 nm, x2 = 0.9233) of 1.32477 ± 0.00032. It also gave a refractive index (Wavelength=644 nm, x2 = 0.9253) of 1.32641 ± 0.00032, a refractive index (Wavelength=644 nm, x2 = 0.9527) of 1.32339 ± 0.00032 and a refractive index (Wavelength=644 nm, x2 = 0.9773) of 1.32042 ± 0.00032. It also gave a refractive index (Wavelength=644 nm, x2 = 0.989) of 1.31921 ± 0.00032, a refractive index (Wavelength=644 nm, x2 = 0.9964) of 1.31836 ± 0.00032 and a refractive index (Wavelength=706.5 nm, x2 = 0) of 1.3512 ± 0.00043. The refractive index (Wavelength=706.5 nm, x2 = 0.0423) was 1.35117 ± 0.00043, the refractive index (Wavelength=706.5 nm, x2 = 0.0424) was 1.35116 ± 0.00043 and the refractive index (Wavelength=706.5 nm, x2 = 0.082) was 1.35115 ± 0.00042. It also gave a refractive index (Wavelength=706.5 nm, x2 = 0.0822) of 1.35128 ± 0.00042, a refractive index (Wavelength=706.5 nm, x2 = 0.1171) of 1.3512 ± 0.00041 and a refractive index (Wavelength=706.5 nm, x2 = 0.1271) of 1.35122 ± 0.00041. It also gave a refractive index (Wavelength=706.5 nm, x2 = 0.1827) of 1.35105 ± 0.0004, a refractive index (Wavelength=706.5 nm, x2 = 0.3298) of 1.35092 ± 0.00038 and a refractive index (Wavelength=706.5 nm, x2 = 0.3577) of 1.34984 ± 0.00038. For the same compound, the refractive index (Wavelength=706.5 nm, x2 = 0.4497) was 1.34871 ± 0.00038, the refractive index (Wavelength=706.5 nm, x2 = 0.4525) was 1.34936 ± 0.00038 and the refractive index (Wavelength=706.5 nm, x2 = 0.522) was 1.34709 ± 0.00035. For the same compound, the refractive index (Wavelength=706.5 nm, x2 = 0.5543) was 1.34616 ± 0.00043, the refractive index (Wavelength=706.5 nm, x2 = 0.609) was 1.34405 ± 0.00034 and the refractive index (Wavelength=706.5 nm, x2 = 0.6529) was 1.34255 ± 0.00034. For the same compound, the refractive index (Wavelength=706.5 nm, x2 = 0.7504) was 1.33858 ± 0.00034, the refractive index (Wavelength=706.5 nm, x2 = 0.804) was 1.33271 ± 0.00035 and the refractive index (Wavelength=706.5 nm, x2 = 0.807) was 1.33438 ± 0.00034. The refractive index (Wavelength=706.5 nm, x2 = 0.8727) was 1.33146 ± 0.00033, the refractive index (Wavelength=706.5 nm, x2 = 0.9233) was 1.3236 ± 0.00032 and the refractive index (Wavelength=706.5 nm, x2 = 0.9253) was 1.32521 ± 0.00032. For the same compound, the refractive index (Wavelength=706.5 nm, x2 = 0.9527) was 1.32222 ± 0.00032, the refractive index (Wavelength=706.5 nm, x2 = 0.9773) was 1.3193 ± 0.00032 and the refractive index (Wavelength=706.5 nm, x2 = 0.989) was 1.31807 ± 0.00032. The refractive index (Wavelength=706.5 nm, x2 = 0.9964) was 1.31724 ± 0.00032.
